Test results from PubChem BioAssay (NCI).
Values joined by “and” are separate entries in the source; they are usually repeats but may differ in a detail not shown here. Equal values may be shown once.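 Compound exposure: 48 hours, 5 concentrations, 96-well plates. GI50 = concentration required for 50% inhibition of growth. TGI is the concentration that stops growth completely.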

Key:
Test in all cases: NCI-60 cell line screen, 48 h
A498 renal = system: A498 renal
NCI-H460 lung = system: NCI-H460 lung
MOLT-4 leukemia = system: MOLT-4 leukemia
HS 578T breast = system: HS 578T breast
HCT-15 colon = system: HCT-15 colon
SR leukemia = system: SR leukemia
786-0 renal = system: 786-0 renal
MDA-MB-231 breast = system: MDA-MB-231 breast
MDA-MB-435 = system: MDA-MB-435
NCI-H23 lung = system: NCI-H23 lung

Structure (SMILES) | GI50 (A498 renal) | TGI (A498 renal) | GI50 (NCI-H460 lung) | TGI (NCI-H460 lung) | GI50 (MOLT-4 leukemia) | TGI (MOLT-4 leukemia) | GI50 (HS 578T breast) | TGI (HS 578T breast) | GI50 (HCT-15 colon) | TGI (HCT-15 colon) | GI50 (SR leukemia) | GI50 (786-0 renal) | TGI (786-0 renal) | GI50 (MDA-MB-231 breast) | TGI (MDA-MB-231 breast) | GI50 (MDA-MB-435) | TGI (MDA-MB-435) | GI50 (NCI-H23 lung) | TGI (NCI-H23 lung) | TGI (SR leukemia)
CCN(CC)Cc1cc2[nH]c3c4ccc(Cl)cc4ncc3c2cc1OC | 15.9 µM and 10 µM | 29.4 µM and 21.7 µM | 1.99 µM and 2.19 µM | 4.55 µM and 5.11 µM | 2.24 µM and 2.56 µM | > 21.8 µM and 6.8 µM | 2.29 µM and 2.54 µM | 7.09 µM and 8.34 µM | 2.05 µM and 2.46 µM | 8.66 µM and 6.94 µM | 2.36 µM | 2.2 µM and 2.59 µM | 4.82 µM and 5.61 µM | 1.83 µM and 1.8 µM | 7.16 µM and 4.51 µM | 1780 nM and 1750 nM | 3.55 µM and 3.4 µM | 6.07 µM and 3.33 µM | 20.3 µM and 14.4 µM | 
CN(C)C(=S)SCC(=O)Nc1ccccc1 |  | > 100 µM |  | > 100 µM |  | > 100 µM |  | > 100 µM |  | > 100 µM |  |  | > 100 µM |  | > 100 µM |  | > 100 µM |  | > 100 µM | > 100 µM
CN1C(=O)C2(c3ccccc31)N(c1ccc(Cl)cc1)C(=O)C2(c1ccccc1)c1ccccc1 (stereo not drawn) | 34.3 µM | > 100 µM | 52.2 µM | > 100 µM | 9.86 µM | > 100 µM | 21.4 µM | > 100 µM | > 100 µM | > 100 µM | 41.7 µM | > 100 µM | > 100 µM | 13.4 µM | > 100 µM | > 100000 nM | > 100 µM | 64.7 µM | > 100 µM | > 100 µM
O=C(Nc1nc2ccccc2s1)Nc1ccc([N+](=O)[O-])cc1Cl | 5.15 µM | 12.5 µM | 2.42 µM | 6.81 µM | 5.92 µM | > 47.4 µM | 3.98 µM | > 20.8 µM | 3.05 µM | 13 µM | 3.31 µM | 1.92 µM | 3.7 µM | 3.21 µM | 8.59 µM | 3560 nM | 14.2 µM | 3.49 µM | 14.6 µM | > 100 µM
CC[C@H](C)[C@H](NC(=O)[C@H]1CCCCN1C)C(=O)N(C)[C@H](C[C@@H](OC(C)=O)c1nc(C(=O)N[C@@H](Cc2ccccc2)C[C@H](C)C(=O)O)cs1)C(C)C | 0.000548 µM and < 0.00165 µM | < 0.00165 µM | 0.000369 µM and 0.00165 µM | > 16.5 µM | 0.00376 µM and 0.00165 µM | > 16.5 µM | 0.00101 µM and 0.00165 µM | > 16.5 µM | 0.00133 µM and 0.00165 µM | > 16.5 µM | 0.000305 µM and 0.00165 µM | 0.000943 µM and 0.00165 µM | > 16.5 µM | 0.00201 µM and 0.00165 µM | > 16.5 µM | 0.0749 nM and < 1.65 nM | 0.000386 µM and < 0.00165 µM | 0.000887 µM and 0.00165 µM | > 16.5 µM | > 16.5 µM
CN1CSC(=S)N(Cc2ccccc2)C1 | 0.017 µM | 31.2 µM | 15.3 µM | 36.8 µM | 11.2 µM | > 100 µM | 11.4 µM | 45.7 µM | 4.74 µM | 22 µM | 2.11 µM | 12 µM | 44.2 µM | 13.6 µM | 37.7 µM | 3580 nM | 19.8 µM | 14.1 µM | 36.6 µM | > 100 µM
N=c1c2c(=N)n3c(nc2nc2n1-c1ccccc1Sc1ccccc1-2)sc1cc(Cl)ccc13 | 1.79 µM | 6.33 µM | 1.77 µM | 10.3 µM | 2.33 µM | > 100 µM | 1.78 µM | 7.01 µM | 2.14 µM | > 100 µM | 2.77 µM | 3.64 µM | > 100 µM | 2.8 µM | 14 µM | 3110 nM | > 100 µM | 1.15 µM | 7.02 µM | > 100 µM
O=C1Cc2cc(C(=O)NC3C[C@H]4CC[C@@H](C3)N4S(=O)(=O)CC3CCN(CCCC(F)(F)F)CC3)c(Cl)cc2N1 (stereo partly drawn) | > 100 µM | > 100 µM | > 100 µM | > 100 µM | > 100 µM | > 100 µM | > 100 µM | > 100 µM | > 100 µM | > 100 µM | 26.5 µM | > 100 µM | > 100 µM | > 100 µM | > 100 µM | > 100000 nM | > 100 µM | > 100 µM | > 100 µM | > 100 µM
NS(=O)(=O)OCCCCCCCOS(N)(=O)=O |  | 770 µM |  | 401 µM |  | 790 µM |  | 1790 µM |  | 1190 µM |  |  | 571 µM |  | 1030 µM |  | 921 µM |  | 795 µM | 912 µM
O=C1/C=C/[C@@H](O)[C@@H]2C[C@@H](O)C[C@H]2/C=C/CCC[C@H](C(F)(F)F)O1 | 0.0705 µM | 0.715 µM | 9.54 µM | > 100 µM | 0.174 µM | 0.625 µM | 0.347 µM | > 100 µM | 0.32 µM | 6.98 µM | 0.199 µM | 0.126 µM | 0.469 µM | 0.268 µM | 0.774 µM | 360 nM | > 44.5 µM | 0.285 µM | 4.17 µM | 0.591 µM
CCCCCCCCCCCCCC[C@@H](O)[C@H]1CC[C@H]([C@H]2CC[C@H]([C@H](O)CCCCCC[C@@H](O)CC3=C[C@H](C)OC3=O)O2)O1 | 3.27 µM | > 25 µM | 0.0214 µM | 4.26 µM and > 25 µM | 2.01 µM | 8.81 µM and > 25 µM | > 25 µM | 3.15 µM and > 25 µM | 2.42 µM | 5.38 µM and > 25 µM | 5.88 µM | 4.31 µM | > 25 µM | 2.31 µM | 8.9 µM and > 25 µM |  | > 25 µM |  | > 25 µM | 6.05 µM and > 25 µM
O=S(=O)(c1cnccc1N1CCN(CCO)CC1)N1CCCC1 |  | > 100 µM |  | > 100 µM |  |  |  | > 100 µM |  | > 100 µM |  |  | > 100 µM |  | > 100 µM |  | > 100 µM |  | > 100 µM | > 100 µM
COC(=O)C=Cc1ccc2nncnc2c1 (mixture of isomers) |  | > 100 µM |  |  |  | > 100 µM |  | > 100 µM |  | > 100 µM |  |  | > 100 µM |  | > 100 µM |  | 35.5 µM |  |  | > 100 µM
COc1ccc(N(C)c2nc(N)nc3sc4c(c23)CCCC4)cc1 | < 0.01 µM | < 0.0209 µM | < 0.01 µM | 4.19 µM | < 0.0125 µM | 28 µM | < 0.01 µM | 10.3 µM | < 0.01 µM | 13 µM | < 0.01 µM | < 0.01 µM | 13.2 µM | < 0.01 µM | 0.918 µM | < 10 nM |  | < 0.01 µM | 20.8 µM | 11 µM
